Results from patent US10745355B2, “Anti-cancer compounds” (THE UNIVERSITY OF SYDNEY, priority 2015, dated 2020).

Assays:
U87 [1] = experiment: Alamar blue cell viability assay, U87 cells; type: cell-based; conditions: Homo sapiens, U-87 MG; 72 hours of treatment; mean±SEM, three independent experiments
Procedure: (§1) U87 and U251 cell lines were obtained from the European Collection of Cell Cultures (ECACC) through CellBank Australia. U87-EGFRvIII cell line was obtained from their lab of origin (Nishikawa et al., 1994, Proc Natl Acad Sci USA 91: 7727-7731) and tested for EGFR amplification and mutation by immunoblotting and flow cytometry. Cells were cultured in DMEM medium (Invitrogen by Life Technologies, Carlsbad, Calif., USA) supplemented with 10% FBS (Sigma-Aldrich) at 37° C. and 5% CO2. Primary gliomaspheres (RN1, classical; WK1, mesenchymal) were derived from glioblastoma specimens (Day et al., 2013, Cancers 5: 357-371; Day et al., 2013, Cancer Cell 23: 238-248), maintained in StemPro NSC serum-free media supplemented with EGF and FGF (all Life Technologies), and grown on matrigel-coated flasks (Pollard et al., 2009, Cell Stem Cell 4: 568-580).
(§2) Cell viability was determined using Alamar blue assay after 72 hours of treatment (Table 2). EC50 values were calculated using non-linear regression on Graph Pad Prism version 5. c Log P values calculated using ChemBioDraw Software. Results are mean±SEM from three independent experiments performed in triplicates.

U87vIII [2] = experiment: Alamar blue cell viability assay, U87vIII cells; type: cell-based; conditions: 72 hours of treatment; mean±SEM, three independent experiments
Procedure: as §1, §2

U251 = experiment: Alamar blue cell viability assay, U251 cells; type: cell-based; conditions: Homo sapiens, U-251; 72 hours of treatment; mean±SEM, three independent experiments
Procedure: as §1, §2

Porcine brain tubulin = biological target: T1, Porcine brain tubulin (Sus scrofa, UniProt P02550+P02554); experiment: Fluorescence-based tubulin polymerisation assay; type: biochemical; conditions: 37° C., FIG. 10A
T1 construct: purchased Cytoskeleton, Colo., USA (Tubulin Polymerisation Assay kit); host or cells: porcine brain (tissue-purified)
T1 sequence (P02550 whole entry): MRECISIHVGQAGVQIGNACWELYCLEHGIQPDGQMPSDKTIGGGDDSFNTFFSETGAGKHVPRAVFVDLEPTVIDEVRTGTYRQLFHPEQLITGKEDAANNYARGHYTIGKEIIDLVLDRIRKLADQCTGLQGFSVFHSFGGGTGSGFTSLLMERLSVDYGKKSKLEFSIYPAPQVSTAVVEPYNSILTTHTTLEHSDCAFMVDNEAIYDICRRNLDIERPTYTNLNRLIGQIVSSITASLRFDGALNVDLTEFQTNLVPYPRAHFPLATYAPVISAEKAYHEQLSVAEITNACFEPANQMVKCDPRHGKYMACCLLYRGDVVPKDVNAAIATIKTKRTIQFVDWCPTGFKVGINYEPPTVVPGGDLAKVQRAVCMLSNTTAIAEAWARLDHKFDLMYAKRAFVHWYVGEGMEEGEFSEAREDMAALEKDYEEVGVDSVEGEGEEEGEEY
T1 sequence (P02554 whole entry): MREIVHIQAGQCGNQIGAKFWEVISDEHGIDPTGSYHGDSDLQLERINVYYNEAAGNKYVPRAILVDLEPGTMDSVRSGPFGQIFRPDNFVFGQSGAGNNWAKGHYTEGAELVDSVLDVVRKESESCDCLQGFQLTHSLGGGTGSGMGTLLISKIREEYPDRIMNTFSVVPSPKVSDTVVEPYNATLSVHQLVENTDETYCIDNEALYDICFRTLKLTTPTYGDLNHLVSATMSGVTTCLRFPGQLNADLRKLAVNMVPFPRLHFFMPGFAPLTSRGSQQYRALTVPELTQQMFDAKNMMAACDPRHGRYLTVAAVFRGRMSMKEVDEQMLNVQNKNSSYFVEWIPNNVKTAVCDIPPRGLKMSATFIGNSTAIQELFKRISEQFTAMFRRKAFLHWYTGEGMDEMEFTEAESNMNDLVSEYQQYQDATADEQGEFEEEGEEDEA
Procedure: FIGS. 10A-10D. […] (10A) Compound 1-08 inhibits tubulin polymerisation in vitro. Data are expressed as mean from at least 3 independent experiments; each data point was performed in triplicates. (10B) U87 cells treated with compound 1-08 (24 h) were stained with Alexa488-labelled anti-β-tubulin antibody (green) or DAPI (blue). Treatment profoundly disturbed the microtubule network and caused formation of multinucleated cell (white arrows). White scale bar represents 50 μm. Multinucleated cells were manually counted and at least 200 cells were counted for each sample. Data in the bar graph (10C) are expressed as mean±SEM (n=3; * P<0.05, *** P<0.001; 1-way ANOVA followed by Newman-Keuls posttest). (10D) U87 cells were treated with compound 1-08 (48 h), tubulin and DNA were stained as in (10B). Treatment with 1-08 caused defective mitotic spindle formation. Representative images from 3 independent experiments are shown. White scale bar represents 2 μm.
The effect of compound 1-08 on tubulin polymerisation and mitotic spindle formation was also investigated. The fluorescence-based tubulin polymerisation assay was conducted in the final volume of 55 μL using the Tubulin Polymerisation Assay kit (Cytoskeleton, Colo., USA) as per the manufacturer's instructions. Porcine brain tubulin was incubated with test compounds (paclitaxel, vinblastine and compound 1-08) at 37° C. and fluorescence was measured using FLUOstar Omega microplate reader (BMG Labtech, Ortenberg, Germany; excitation at 355 nm and emission at 460 nm). […] To test whether compound 1-08 alters microtubules in vivo, U87 glioblastoma cells were treated with compound 1-08 and the effect on the microtubules was determined by immunofluorescence staining of β-tubulin. […] The consequence of microtubule depolymerisation induced by compound 13 was disrupted spindle assembly (FIG. 10D). In untreated U87 cells undergoing mitosis, microtubules are assembled into bipolar spindles (control images).

[3] = system: RN1 gliomaspheres (classical); experiment: AlamarBlue cell viability assay, RN1 gliomaspheres; type: cell-based; conditions: 72 h of drug treatment, FIG. 11A
Procedure: (§3) FIGS. 11A-11B. Efficacy of SC-38 (referred to as “CMPD1”), compound 1-08 (referred to as “cmpd 13”), compound 1-18 (referred to as “cmpd 7”), and compound 1-38 (referred to as “cmpd 10”) in primary gliomaspheres representing two glioblastoma subtypes. (11A) RN1, classical, and (11B) WK1, mesenchymal. Cellular efficacy (EC50) of test compounds was determined using AlamarBlue cell viability assay after 72 h of drug treatment. Data are mean±SEM from 3 independent experiments performed in triplicate.
as §1, with “568-580). […]” for “568-580).”

[4] = system: WK1 gliomaspheres (mesenchymal); experiment: AlamarBlue cell viability assay, WK1 gliomaspheres; type: cell-based; conditions: 72 h of drug treatment, FIG. 11B
Procedure: as §3, §1
The effect of SC-38, and compounds 1-08, 1-18 and 1-38 in a cell viability assay employing patient-derived gliomaspheres was also investigated. RN1 gliomaspheres representing glioblastoma of the classical subtype were most responsive to the treatment (FIG. 11, where SC-38 is referred to as “CMPD1”, compound 1-08 is referred to as “compound 13”, compound 1-18 is referred to as “compound 7”, and compound 1-38 is referred to as “compound 10”).

U87 [5] = experiment: Annexin-FITC/7-AAD apoptosis assay, U87 cells; type: cell-based; conditions: 48 hours treatment
Procedure: (§4) FIGS. 4A-4D. […] U87 (4A-4B) and U87vIII (4C-4D) cells were treated with SC-38 for 48 hours and stained with Annexin-FITC/7-AAD. Apoptotic cells were visualized using the MUSE cell analyzer (Millipore).
(§5) FIGS. 6A-6D. […] U87 (A B) (6A-6B) and U87vIII (6C-6D) cells were treated with compound 1-08 for 48 hours and stained with Annexin-FITC/7-AAD. Apoptotic cells were visualized using the MUSE cell analyzer (Millipore). Results are means±SEM from 3 independent experiments. One-way ANOVA followed by Dunnet post-test was used to calculate statistical significance (***P<0.001).
(§6) U87 (FIGS. 4, A-B) and U87vIII (FIG. 4, C-D) cells were treated with SC-38 for 48 hours and stained with Annexin-FITC/7-AAD. Apoptotic cells were visualized using the MUSE cell analyzer (Millipore). Results are means±SEM from 3 independent experiments. One-way ANOVA followed by Dunnet post-test was used to calculate statistical significance (**P<0.01, ***P<0.001)
as §6, with “6,” for “4,”, “compound 1-08” for “SC-38”, “three” for “3”, “(***P<0.001).” for “(**P<0.01, ***P<0.001)”

U87vIII [6] = experiment: Annexin-FITC/7-AAD apoptosis assay, U87vIII cells; type: cell-based; conditions: 48 hours treatment
Procedure: as §4, §5, §6
as §6, with “6,” for “4,”, “compound 1-08” for “SC-38”, “three” for “3”, “(***P<0.001).” for “(**P<0.01, ***P<0.001)”

glioma cell lines = experiment: Viability (Alamar Blue) and cytotoxicity (ToxiLight) in glioma cell lines; type: cell-based; conditions: 10 nM-10 μM, 72 hours
Procedure: Cells were treated with SC-38 (10 nM-10 μM) for 72 hours. Cells were subjected to viability testing (left, Alamar Blue viability assay, Invitrogen) and supernatant harvested for bioluminescent cytotoxicity analysis (right, ToxiLight™ bioassay kit, Lonza).

[7] = Brain uptake in BALB/c mice; type: in vivo; conditions: 10 mg/kg intraperitoneally, brains harvested at 30 and 60 min, HPLC
Procedure: BALB/c mice were injected intraperitoneally with tested inhibitor (10 mg/kg) and brains harvested at 30 and 60 min. Solid-phase extraction was performed using brain homogenates and the amount of the test compound was determined with HPLC. Lapatinib data are from Polli, J. W. et al. “The Role of Efflux and Uptake Transporters in N-{3-Chloro-4-[(3-fluorobenzyl)oxy]phenyl}-6-[5-({[2-(methylsulfonyl)ethyl]amino}methyl)-2-furyl]-4-quinazolinamine (GW572016, Lapatinib) Disposition and Drug Interactions”, Drug Metabolism and Disposition 36, 695-701 (2008).

| EC50 (U87 [1]) [nM] | EC50 (U87vIII [2]) [nM] | EC50 (U251) [nM] | SMILES | other results |
| --- | --- | --- | --- | --- |
| 4600 ± 800 | 4300 ± 300 | 1200 ± 100 | O=C(CCCc1ccc(-c2cccnc2)cc1)Nc1ccc(O)cc1 [Compound 1-38, N-(4-hydroxyphenyl)-4-(4-(pyridin-3-yl)phenyl)butanamide] | – |
| 6600 ± 900 | > 10000 | 4600 ± 200 | O=C(CCCc1ccc(-c2cccnc2F)cc1)Nc1ccccc1 [Compound 1-20, 4-(4-(2-fluoropyridin-3-yl)phenyl)-N-phenylbutanamide] | – |
| 1800 ± 300 | 3100 ± 1000 | 1500 ± 300 | NCc1ccc(-c2ccc(CCCC(=O)Nc3ccc(O)cc3)cc2)cc1 [Compound 1-07, 4-(4′-(aminomethyl)-[1,1′-biphenyl]-4-yl)-N-(4-hydroxyphenyl)butanamide] | – |
| – | – | – | CC[C@]1(O)C[C@@H]2CN(CCc3c([nH]c4ccccc34)[C@@](C(=O)OC)(c3cc4c(cc3OC)N(C)[C@H]3[C@@](O)(C(=O)OC)[C@H](OC(C)=O)[C@]5(CC)C=CCN6CC[C@]43[C@@H]65)C2)C1 [vinblastine] | effect on tubulin polymerisation compared to control (Porcine brain tubulin): inhibited tubulin polymerisation in a dose-dependent manner |
| 380 ± 100 | 680 ± 100 | 430 ± 100 | O=C(CCCc1ccc(-c2ccccc2F)cc1)Nc1ccc(O)cc1 [SC-38, reference compound] | EC50 [3]: 260 nM; EC50 [4]: 910 nM; apoptosis, U87 (U87 [5]): induced apoptosis; apoptosis, U87vIII (U87vIII [6]): induced apoptosis; viability of glioma cell lines (glioma cell lines; Alamar Blue): decreases viability of glioma cell lines; cytotoxicity (ToxiLight) (glioma cell lines; supernatant): selectively cytotoxic |
| > 10000 | > 10000 | > 10000 | O=C(CCCc1ccc(-c2cncnc2)cc1)Nc1ccc(O)cc1 [Compound 1-01, N-(4-hydroxyphenyl)-4-(4-(pyrimidin-5-yl)phenyl)butanamide] | – |
| 1400 ± 200 | 1700 ± 100 | 1600 ± 200 | O=C(CCCc1ccc(-c2cccnc2F)cc1)Nc1ccc(O)cc1 [Compound 1-18, 4-(4-(2-fluoropyridin-3-yl)phenyl)-N-(4-hydroxyphenyl)butanamide] | EC50 [4]: 2000 nM; brain uptake / crossing of the BBB [7]: readily crossed the BBB |
| > 10000 | > 10000 | > 10000 | O=C(CCCc1ccc(Br)cc1)Nc1ccc(O)cc1 [Compound 1-17, 4-(4-bromophenyl)-N-(4-hydroxyphenyl)butanamide] | – |
| 2900 ± 900 | 3400 ± 400 | 1650 ± 100 | O=C(CCCc1ccc(-c2ccc(F)nc2F)cc1)Nc1ccc(O)cc1 [Compound 1-22, 4-(4-(2,6-difluoropyridin-3-yl)phenyl)-N-(4-hydroxyphenyl)butanamide] | – |
| > 10000 | > 10000 | > 10000 | COc1ncc(-c2ccc(CCCC(=O)Nc3ccc(O)cc3)cc2)cn1 [Compound 1-19, N-(4-hydroxyphenyl)-4-(4-(2-methoxypyrimidin-5-yl)phenyl)butanamide] | – |
| 4800 ± 1200 | > 10000 | > 10000 | O=C(CCCc1ccc(-c2ccc(F)nc2)cc1)Nc1ccc(O)cc1 [Compound 1-21, 4-(4-(6-fluoropyridin-3-yl)phenyl)-N-(4-hydroxyphenyl)butanamide] | – |
| – | – | – | CC(=O)O[C@H]1C(=O)[C@@]2(C)[C@H]([C@H](OC(=O)c3ccccc3)[C@]3(O)C[C@H](OC(=O)[C@H](O)[C@@H](NC(=O)c4ccccc4)c4ccccc4)C(C)=C1C3(C)C)[C@]1(OC(C)=O)CO[C@@H]1C[C@@H]2O [paclitaxel] | effect on tubulin polymerisation compared to control (Porcine brain tubulin): enhanced tubulin polymerisation |
